Laboratory results taken from the supplement of paper PMC10307832.

Compound: CCN1CCN(c2ccc(Nc3cc(N(C)C(=O)Nc4c(Cl)c(OC)cc(OC)c4Cl)ncn3)cc2)CC1 [BGJ398] + CC(=O)Nc1cccc(-n2c(=O)n(C3CC3)c(=O)c3c(Nc4ccc(I)cc4F)n(C)c(=O)c(C)c32)c1 [Trametinib] (partner 0.02 µM)
Test: relative viability (nuclei count vs DMSO), 5 days (fraction); higher = more cells survive
Conditions: first compound 0.01 µM
Procedure, shortened: (§1)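 Values are medians from duplicate plates. Each reflects relative viability, defined as the nuclei count of treated wells over that of vehicle wells. Lung cancer cell lines in 1536-well plates were pin-tool dosed one day after seeding with one drug alone or with a fixed anchor-drug dose plus five library-drug doses (not always all listed) in √10 steps, then fixed, stained and imaged at 4× after 5 days.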

In order of rising relative viability:
1. NCI-H460  0.0671
2. LCLC-97TM1  0.185
3. NCI-H3122  0.204
4. NCI-H2009  0.261
5. NCI-H1915  0.282
6. CAL-12T  0.302
7. EPLC-272H  0.302
8. NCI-H2347  0.32
9. NCI-H23  0.348
10. NCI-H1792  0.359
11. NCI-H647  0.374
12. NCI-H1355  0.374
13. NCI-H2228  0.42
14. SK-LU-1  0.446
15. NCI-H661  0.479
16. HCC-827  0.482
17. LXF-289  0.567
18. NCI-H322M  0.587
19. NCI-H1437  0.59
20. NCI-H1734  0.591
21. A-427  0.624
22. HARA  0.778
23. NCI-H1651  0.804
24. 201T  0.817
25. BEN  0.84
26. NCI-H1395  0.986

Same assay, conditions: first compound 0.03162 µM

In order of rising relative viability:
1. NCI-H460  0.131
2. LCLC-97TM1  0.205
3. NCI-H3122  0.223
4. NCI-H2347  0.239
5. NCI-H2009  0.265
6. NCI-H1915  0.31
7. EPLC-272H  0.345
8. NCI-H1792  0.361
9. HARA  0.41
10. CAL-12T  0.428
11. NCI-H23  0.438
12. NCI-H1355  0.44
13. NCI-H322M  0.465
14. NCI-H441  0.484
15. NCI-H1437  0.508
16. NCI-H647  0.573
17. A-427  0.595
18. NCI-H661  0.599
19. LXF-289  0.649
20. NCI-H1734  0.657
21. SK-LU-1  0.669
22. NCI-H2228  0.694
23. 201T  0.696
24. NCI-H1651  0.876
25. NCI-H1395  0.963
26. BEN  1.02

Same assay, conditions: first compound 0.1 µM

In order of falling relative viability:
1. BEN  1.03
2. NCI-H1651  0.922
3. 201T  0.688
4. LXF-289  0.672
5. NCI-H1395  0.666
6. NCI-H661  0.642
7. A-427  0.585
8. NCI-H1437  0.559
9. HCC-827  0.542
10. NCI-H1734  0.54
11. NCI-H647  0.526
12. NCI-H441  0.52
13. NCI-H322M  0.511
14. NCI-H2228  0.503
15. SK-LU-1  0.454
16. NCI-H1355  0.452
17. NCI-H23  0.441
18. HARA  0.43
19. NCI-H1792  0.342
20. CAL-12T  0.315
21. NCI-H1915  0.29
22. EPLC-272H  0.282
23. NCI-H2347  0.275
24. NCI-H3122  0.245
25. NCI-H2009  0.219
26. LCLC-97TM1  0.215
27. NCI-H460  0.209

Same assay, conditions: first compound 0.3162 µM

In order of falling relative viability:
1. BEN  0.899
2. NCI-H1651  0.806
3. 201T  0.643
4. HARA  0.604
5. LXF-289  0.563
6. NCI-H1395  0.555
7. SK-LU-1  0.52
8. NCI-H1437  0.519
9. NCI-H661  0.516
10. NCI-H647  0.447
11. NCI-H322M  0.435
12. NCI-H441  0.429
13. A-427  0.427
14. NCI-H1734  0.42
15. CAL-12T  0.404
16. HCC-827  0.399
17. NCI-H1355  0.382
18. NCI-H23  0.377
19. NCI-H2228  0.348
20. NCI-H2347  0.309
21. NCI-H2009  0.23
22. NCI-H1915  0.221
23. NCI-H1792  0.215
24. LCLC-97TM1  0.21
25. EPLC-272H  0.194
26. NCI-H3122  0.19
27. NCI-H460  0.13

Same assay, conditions: first compound 1 µM

In order of rising relative viability:
1. NCI-H460  0.0628
2. NCI-H1915  0.17
3. NCI-H1792  0.17
4. EPLC-272H  0.198
5. LCLC-97TM1  0.218
6. SK-LU-1  0.229
7. NCI-H2009  0.244
8. NCI-H2347  0.259
9. NCI-H3122  0.264
10. CAL-12T  0.308
11. NCI-H23  0.322
12. NCI-H1355  0.329
13. NCI-H647  0.345
14. NCI-H1734  0.381
15. NCI-H1437  0.393
16. NCI-H2228  0.419
17. NCI-H441  0.436
18. HARA  0.437
19. A-427  0.438
20. NCI-H322M  0.507
21. NCI-H1395  0.587
22. LXF-289  0.593
23. HCC-827  0.623
24. NCI-H661  0.63
25. 201T  0.693
26. NCI-H1651  0.841
27. BEN  0.952

Compound: CCN1CCN(c2ccc(Nc3cc(N(C)C(=O)Nc4c(Cl)c(OC)cc(OC)c4Cl)ncn3)cc2)CC1 [BGJ398] + C[C@]1(O)C[C@@H](c2nc(-c3ccc4ccc(-c5ccccc5)nc4c3)c3c(N)nccn32)C1 [Linsitinib] (partner 1 µM)
Test: as above
Conditions: first compound 0.01 µM
Procedure, shortened: as §1

In order of rising relative viability:
1. LCLC-97TM1  0.169
2. NCI-H1792  0.482
3. NCI-H441  0.526
4. NCI-H661  0.531
5. NCI-H23  0.582
6. NCI-H2228  0.63
7. NCI-H460  0.714
8. NCI-H1355  0.741
9. CAL-12T  0.774
10. NCI-H1734  0.816
11. HARA  0.845
12. NCI-H322M  0.863
13. NCI-H1651  0.874
14. BEN  0.935
15. LXF-289  0.944
16. HCC-827  0.95
17. NCI-H2347  0.989
18. NCI-H1437  0.999
19. NCI-H3122  1
20. NCI-H1915  1.05
21. NCI-H647  1.06
22. SK-LU-1  1.1
23. A-427  1.12
24. NCI-H1395  1.15
25. EPLC-272H  1.16
26. 201T  1.17
27. NCI-H2009  1.18

Same assay, conditions: first compound 0.03162 µM

In order of falling relative viability:
1. NCI-H647  1.29
2. NCI-H2009  1.24
3. NCI-H1395  1.24
4. EPLC-272H  1.16
5. A-427  1.15
6. NCI-H2347  1.08
7. 201T  1.08
8. NCI-H3122  1.06
9. NCI-H1915  1.04
10. SK-LU-1  1.01
11. NCI-H1437  0.995
12. BEN  0.95
13. NCI-H1651  0.938
14. LXF-289  0.886
15. NCI-H1734  0.873
16. HARA  0.856
17. NCI-H460  0.838
18. NCI-H1355  0.807
19. NCI-H322M  0.788
20. CAL-12T  0.782
21. NCI-H661  0.77
22. NCI-H23  0.597
23. NCI-H441  0.569
24. NCI-H1792  0.511
25. NCI-H2228  0.438
26. LCLC-97TM1  0.159

Same assay, conditions: first compound 0.1 µM

In order of falling relative viability:
1. NCI-H647  1.26
2. SK-LU-1  1.2
3. EPLC-272H  1.2
4. A-427  1.15
5. NCI-H2009  1.14
6. NCI-H1915  1.12
7. 201T  1.07
8. NCI-H1651  1.05
9. NCI-H1437  1.04
10. NCI-H3122  0.997
11. NCI-H322M  0.978
12. NCI-H1395  0.977
13. NCI-H2347  0.975
14. NCI-H460  0.916
15. NCI-H1734  0.907
16. HARA  0.903
17. BEN  0.89
18. LXF-289  0.883
19. CAL-12T  0.882
20. HCC-827  0.872
21. NCI-H1355  0.827
22. NCI-H441  0.7
23. NCI-H661  0.644
24. NCI-H23  0.564
25. NCI-H1792  0.551
26. LCLC-97TM1  0.194
27. NCI-H2228  0.19

Same assay, conditions: first compound 0.3162 µM

In order of falling relative viability:
1. NCI-H1915  1.19
2. NCI-H647  1.17
3. NCI-H2009  1.16
4. SK-LU-1  1.15
5. 201T  1.06
6. NCI-H3122  1.05
7. NCI-H1437  1.05
8. NCI-H1651  1.04
9. EPLC-272H  1
10. HARA  0.978
11. NCI-H2347  0.968
12. HCC-827  0.942
13. NCI-H1395  0.939
14. NCI-H322M  0.935
15. NCI-H460  0.895
16. A-427  0.884
17. NCI-H1734  0.864
18. NCI-H2228  0.852
19. LXF-289  0.84
20. BEN  0.818
21. NCI-H1355  0.779
22. CAL-12T  0.773
23. NCI-H661  0.678
24. NCI-H1792  0.63
25. NCI-H23  0.568
26. NCI-H441  0.486
27. LCLC-97TM1  0.212

Same assay, conditions: first compound 1 µM

In order of rising relative viability:
1. LCLC-97TM1  0.186
2. NCI-H1792  0.287
3. NCI-H23  0.48
4. NCI-H441  0.484
5. NCI-H661  0.548
6. NCI-H2228  0.719
7. CAL-12T  0.756
8. NCI-H1395  0.797
9. BEN  0.798
10. A-427  0.799
11. NCI-H1355  0.823
12. NCI-H1651  0.895
13. LXF-289  0.899
14. HARA  0.902
15. NCI-H1734  0.917
16. NCI-H460  0.92
17. HCC-827  0.989
18. NCI-H322M  0.999
19. NCI-H2347  1
20. 201T  1.01
21. NCI-H3122  1.02
22. NCI-H1437  1.06
23. NCI-H647  1.08
24. NCI-H1915  1.13
25. NCI-H2009  1.17
26. SK-LU-1  1.21
27. EPLC-272H  1.22
